Experimental findings from US11084800B2 (Achillion Pharmaceuticals, Inc., priority 2017, dated 2021) are described below.

Where only a bound is given, the exact number is not on record here.

The target of the first test is Human Factor D (Homo sapiens (Human), UniProt P00746). Kind of test: Human Factor D Assay. It counts as biochemical. To be noted: Factor D inhibition, assay of Example 10; read-out: IC5 (Stars). The procedure, abridged: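 Thioester substrate Z-L-Lys-SBz (100 μM) with Ellman's reagent DTNB (100 μM) reports activity of 80 nM human serum-derived enzyme, kinetically at 405 nm over 30 min. Compound preincubated 5 min, room temperature, pH 7.5 Tris/1 M NaCl; IC50 by nonlinear fit of rates.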
Human Factor D, sequence (P00746 26-253): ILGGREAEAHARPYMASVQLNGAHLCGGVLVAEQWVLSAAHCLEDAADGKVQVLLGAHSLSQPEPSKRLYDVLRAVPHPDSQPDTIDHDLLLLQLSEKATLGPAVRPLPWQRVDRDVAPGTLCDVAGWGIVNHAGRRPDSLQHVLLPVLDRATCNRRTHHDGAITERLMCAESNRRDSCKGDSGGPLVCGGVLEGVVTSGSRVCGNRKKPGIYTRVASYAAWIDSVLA
Take `CC(=O)c1nn(CC(=O)N2[C@H](C(=O)Nc3nc(Br)ccc3C)C[C@@]3(c4cc(C(C)C)no4)C[C@@H]23)c2ccc(-c3cnc(C)nc3)cc12` [Compound 333, (1R,3S,5S)-2-(2-(3-acetyl-5-(2-methylpyrimidin-5-yl)-1H-indazol-1-yl)acetyl)-N-(6-bromo-3-methylpyridin-2-yl)-5-(3-isopropylisoxazol-5-yl)-2-azabicyclo[3.1.0]hexane-3-carboxamide]: the IC50 was under 1000 nM. On to `CC(=O)c1nn(CC(=O)N2[C@H](C(=O)Nc3nc(Br)ccc3C)C[C@@]3(Cc4nc(C(C)(C)C)cs4)C[C@@H]23)c2ccc(-c3cnc(C)nc3)cc12` [Compound 338, (1R,3S,5R)-2-{2-[3-Acetyl-5-(2-methylpyrimidin-5-yl)indazol-1-yl]acetyl}-N-(6-bromo-3-methylpyridin-2-yl)-5-[(4-tert-butyl-1,3-thiazol-2-yl)methyl]-2-azabicyclo[3.1.0]hexane-3-carboxamide], for which the IC50 was under 1000 nM. As to `CCc1csc(C[C@@]23C[C@@H](C(=O)Nc4nc(Br)ccc4C)N(C(=O)Cn4nc(C(C)=O)c5cc(-c6cnc(C)nc6)ccc54)[C@@H]2C3)n1` [Compound 339, (1R,3S,5R)-2-(2-(3-acetyl-5-(2-methylpyrimidin-5-yl)-1H-indazol-1-yl)acetyl)-N-(6-bromo-3-methylpyridin-2-yl)-5-((4-ethylthiazol-2-yl)methyl)-2-azabicyclo[3.1.0]hexane-3-carboxamide], the IC50 was under 1000 nM. Regarding `CC(=O)c1nn(CC(=O)N2[C@H](C(=O)Nc3nc(Br)ccc3C)C[C@@]3(CNCCCF)C[C@@H]23)c2c(C)cc(-c3cnc(C)nc3)cc12` [Compound 342, (1R,3S,5R)-2-(2-(3-acetyl-7-methyl-5-(2-methylpyrimidin-5-yl)-1H-indazol-1-yl)acetyl)-N-(6-bromo-3-methylpyridin-2-yl)-5-(((3-fluoropropyl)amino)methyl)-2-azabicyclo[3.1.0]hexane-3-carboxamide], the IC50 was under 1000 nM. With `CC(=O)c1nn(CC(=O)N2[C@H](C(=O)Nc3nc(Br)ccc3C)C[C@@]3(CN4CC5(CCC5)C4)C[C@@H]23)c2c(C)nc(-c3cnc(C)nc3)cc12` [Compound 344, (1R,3S,5R)-5-(2-azaspiro[3.3]heptan-2-ylmethyl)-2-(2-(3-acetyl-7-methyl-5-(2-methylpyrimidin-5-yl)-1H-pyrazolo[3,4-c]pyridin-1-yl)acetyl)-N-(6-bromo-3-methylpyridin-2-yl)-2-azabicyclo[3.1.0]hexane-3-carboxamide], the IC50 is under 1000 nM. In the case of `CC(=O)c1nn(CC(=O)N2[C@H](C(=O)Nc3nc(Br)ccc3C)C[C@@]3(CCCN(C)C)C[C@@H]23)c2c(CF)cc(-c3cnc(C)nc3)cc12` [Compound 345, (1R,3S,5R)-2-(2-(3-acetyl-7-(fluoromethyl)-5-(2-methylpyrimidin-5-yl)-1H-indazol-1-yl)acetyl)-N-(6-bromo-3-methylpyridin-2-yl)-5-(3-(dimethylamino)propyl)-2-azabicyclo[3.1.0]hexane-3-carboxamide], the IC50 is under 1000 nM. Regarding `CC(=O)c1nn(CC(=O)N2[C@H](C(=O)Nc3nc(Br)ccc3C)C[C@@]3(Cc4ncc(C(C)C)s4)C[C@@H]23)c2ccc(-c3cnc(C)nc3)cc12` [Compound 349, (1R,3S,5R)-2-(2-(3-acetyl-5-(2-methylpyrimidin-5-yl)-1H-indazol-1-yl)acetyl)-N-(6-bromo-3-methylpyridin-2-yl)-5-((5-isopropylthiazol-2-yl)methyl)-2-azabicyclo[3.1.0]hexane-3-carboxamide], the IC50 is under 1000 nM. With `CC(=O)c1nn(CC(=O)N2[C@H](C(=O)Nc3nc(Br)ccc3C)C[C@@]3(CN4CC(C)(C)C4)C[C@@H]23)c2c(C)cc(-c3cnc(C)nc3)cc12` [Compound 350], the IC50 was under 1000 nM. Turning to `CC(=O)c1nn(CC(=O)N2[C@H](C(=O)Nc3nc(Br)ccc3C)C[C@@]3(CN4CCCC4)C[C@@H]23)c2c(CF)cc(-c3cnc(C)nc3)cc12` [Compound 351, (1R,3S,5R)-2-(2-(3-acetyl-7-(fluoromethyl)-5-(2-methylpyrimidin-5-yl)-1H-indazol-1-yl)acetyl)-N-(6-bromo-3-methylpyridin-2-yl)-5-(pyrrolidin-1-ylmethyl)-2-azabicyclo[3.1.0]hexane-3-carboxamide], the IC50 is under 1000 nM. For the compound `CC(=O)c1nn(CC(=O)N2[C@H](C(=O)Nc3nc(Br)ccc3C)C[C@@]3(CN4CCC4)C[C@@H]23)c2c(CF)cc(-c3cnc(C)nc3)cc12` [Compound 353, (1R,3S,5R)-2-(2-(3-acetyl-7-(fluoromethyl)-5-(2-methylpyrimidin-5-yl)-1H-indazol-1-yl)acetyl)-5-(azetidin-1-ylmethyl)-N-(6-bromo-3-methylpyridin-2-yl)-2-azabicyclo[3.1.0]hexane-3-carboxamide], the IC50 was under 1000 nM. Same read-out and setting: next, `CC(=O)c1nn(CC(=O)N2[C@H](C(=O)Nc3nc(Br)ccc3C)C[C@@]3(CN4CC5(CCC5)C4)C[C@@H]23)c2c(CF)cc(-c3cnc(C)nc3)cc12` [Compound 354, (1R,3S,5R)-5-(2-azaspiro[3.3]heptan-2-ylmethyl)-2-(2-(3-acetyl-7-(fluoromethyl)-5-(2-methylpyrimidin-5-yl)-1H-indazol-1-yl)acetyl)-N-(6-bromo-3-methylpyridin-2-yl)-2-azabicyclo[3.1.0]hexane-3-carboxamide]: under 1000 nM. Take `CC(=O)c1nn(CC(=O)N2[C@H](C(=O)Nc3nc(Br)ccc3C)C[C@@]3(CN4CC(C)(C)C4)C[C@@H]23)c2c(CF)cc(-c3cnc(C)nc3)cc12` [Compound 355, (1R,3S,5R)-2-(2-(3-acetyl-7-(fluoromethyl)-5-(2-methylpyrimidin-5-yl)-1H-indazol-1 yl)acetyl)-N-(6-bromo-3-methylpyridin-2-yl)-5-((3,3-dimethylazetidin-1-yl)methyl)-2-azabicyclo[3.1.0]hexane-3-carboxamide]: the IC50 is under 1000 nM. Same read-out and setting: under `CC(=O)c1nn(CC(=O)N2[C@H](C(=O)Nc3nc(Br)ccc3CN3CCn4c(nnc4C(F)(F)F)C3)C[C@@]3(C)C[C@@H]23)c2ccc(-c3cnc(C)nc3)cc12` [Compound 357, (1R,3S,5R)-2-(2-(3-acetyl-5-(2-methylpyrimidin-5-yl)-1H-indazol-1-yl)acetyl)-N-(6-bromo-3-((3-(trifluoromethyl)-5,6-dihydro-[1,2,4]triazolo[4,3-a]pyrazin-7(8H)-yl)methyl)pyridin-2-yl)-5-methyl-2-azabicyclo[3.1.0]hexane-3-carboxamide] stands under 1000 nM. For the compound `CC(=O)c1nn(CC(=O)N2[C@H](C(=O)Nc3nc(Br)ccc3C)C[C@@]3(Cc4nnco4)C[C@@H]23)c2c(C)cc(-c3cnc(C)nc3)cc12` [Compound 359, (1R,3S,5R)-5-((1,3,4-Oxadiazol-2-yl)methyl)-2-(2-(3-acetyl-7-methyl-5-(2-methylpyrimidin-5-yl)-1H-indazol-1-yl)acetyl)-N-(6-bromo-3-methylpyridin-2-yl)-2-azabicyclo[3.1.0]hexane-3-carboxamide], the IC50 was under 1000 nM.

Consider `CC(=O)c1nn(CC(=O)N2[C@H](C(=O)Nc3nc(Br)ccc3C)C[C@@]3(Cc4nnc(C)o4)C[C@@H]23)c2c(C)cc(-c3cnc(C)nc3)cc12` [Compound 360, (1R,3S,5R)-2-(2-(3-acetyl-7-methyl-5-(2-methylpyrimidin-5-yl)-1H-indazol-1-yl)acetyl)-N-(6-bromo-3-methylpyridin-2-yl)-5-((5-methyl-1,3,4-oxadiazol-2-yl)methyl)-2-azabicyclo[3.1.0]hexane-3-carboxamide], for which the IC50 is under 1000 nM. For the compound `Cc1ncc(-c2cc3c(C(N)=O)nn(CC(=O)N4[C@H](C(=O)Nc5nc(Br)ccc5C)C[C@@]5(C)C[C@@H]45)c3cn2)cn1` [Compound 361, 1-(2-((1R,3S,5R)-3-((6-bromo-3-methylpyridin-2-yl)carbamoyl)-5-methyl-2-azabicyclo[3.1.0]hexan-2-yl)-2-oxoethyl)-5-(2-methylpyrimidin-5-yl)-1H-pyrazolo[3,4-c]pyridine-3-carboxamide], the IC50 is under 1000 nM.

In the case of `CC(=O)c1nn(CC(=O)N2[C@H](C(=O)Nc3nc(Br)ccc3-c3nnc(C(C)C)o3)C[C@@]3(C)C[C@@H]23)c2ccc(-c3cnc(C)nc3)cc12` [Compound 362, (1R,3S,5R)-2-(2-(3-acetyl-5-(2-methylpyrimidin-5-yl)-1H-indazol-1-yl)acetyl)-N-(6-bromo-3-(5-isopropyl-1,3,4-oxadiazol-2-yl)pyridin-2-yl)-5-methyl-2-azabicyclo[3.1.0]hexane-3-carboxamide], the IC50 lay in the range of 1000 to 10000 nM. Regarding `COc1ccc(Br)nc1NC(=O)[C@@H]1C[C@@]2(C)C[C@H]2N1C(=O)Cn1nc(C(C)=O)c2cc(-c3cnc(C)nc3)ccc21` [Compound 363, (1R,3S,5R)-2-(2-(3-acetyl-5-(2-methylpyrimidin-5-yl)-1H-indazol-1-yl)acetyl)-N-(6-bromo-3-methoxypyridin-2-yl)-5-methyl-2-azabicyclo[3.1.0]hexane-3-carboxamide], the IC50 is under 1000 nM.

The test is the same for the next values; noted with them: Table 8; Factor D 80 nM, substrate Z-L-Lys-SBz; read-out: IC50.
In the case of `C=CCCCCCCc1cc(-c2cnc(C)nc2)cc2c(C(C)=O)nn(CC(=O)N3[C@H](C(=O)Nc4nc(Br)ccc4CC=C)C[C@@]4(C)C[C@@H]34)c12` [Compound 343, (1R,3S,5R)-2-(2-(3-acetyl-5-(2-methylpyrimidin-5-yl)-7-(oct-7-en-l-yl)-1H-indazol-1-yl)acetyl)-N-(3-allyl-6-bromopyridin-2-yl)-5-methyl-2-azabicyclo[3.1.0]hexane-3-carboxamide], the IC50 was under 1000 nM. Consider `COC(=O)CCCCCCCCCCCCCCCCC(=O)N[C@@H](CCC(=O)NCCOCCOCC(=O)NCCOCCOCC(=O)NC[C@@]12C[C@@H](C(=O)Nc3nc(Br)ccc3C)N(C(=O)Cn3nc(C(C)=O)c4cc(-c5cnc(C)nc5)ccc43)[C@@H]1C2)C(=O)OC` [Compound 358, (S)-methyl 1-((1R,3S,5R)-2-(2-(3-acetyl-5-(2-methylpyrimidin-5-yl)-1H-indazol-1-yl)acetyl)-3-((6-bromo-3-methylpyridin-2-yl)carbamoyl)-2-azabicyclo[3.1.0]hexan-5-yl)-24-(methoxycarbonyl)-3,12,21,26-tetraoxo-5,8,14,17-tetraoxa-2,11,20,25-tetraazatritetracontan-43-oate], for which the IC50 was over 10000 nM.
